This assay deals with C. reinhardtii. The assay can be described thus: Effect of copper on activity of metal-hydrazone complexes: growth inhibition of C. reinhardtii in TAP Cu minus / TAP Cu plus medium (Example 13). It counts as cell-based, Chlamydomonas reinhardtii. As to conditions: for % Inhn. Minus Copper Observed / % Inhn. Plus Copper Observed: C. reinhardtii growth inhibition; for % Inhn. Minus Copper Observed: TAP Cu minus medium; for % Inhn. Plus Copper Observed / % Inhn. Plus Copper Predicted: TAP Cu plus medium; for % Inhn. Plus Copper Predicted: calculated by Colby formula from minus-copper result and inhibition by copper chloride alone. As for the experimental part: In vitro toxicity assays against C. reinhardtii CC-1928 (wild type mt+137c green in dark subclone) obtained from the Chlamydomonas Resource Center at Duke University were conducted using TAP liquid growth medium described by Gorman and Levine Proc. Natl. Acad. Sci. USA 1965, 54, 1665-1669 except that CuSO4.5H2O, normally included as a component of Hutner's trace element stock solution (Hutner et al. Proc. Am. Philos. Soc. 1950, 94, 152-170), was omitted. The TAP medium lacking Cu (TAP Cu minus) was prepared by adding 400 mg NH4Cl, 10 mL of 100× Tris-Acetate (242 g Tris-base and 100 mL glacial acetic acid in 1000 mL milli Q water), and 8.3 mL of 120.5× phosphate buffer (14.34 g K2HPO4 and 7.26 g KH2PO4 in 1000 mL milli Q water) to milli Q water to make a total volume of 1 liter. The medium was treated with 0.5 g Chelex 100 resin (Bio-Rad Analytical grade, 50-100 mesh, sodium form, cat#142-2822) by stirring at room temperature for 1 hour. 900 mL were decanted and 45.9 mg of CaCl2.2H2O, 90 mg of MgSO4.7H2O and 0.9 mL Hutner's trace elements lacking CuSO4.5H2O were added and the solution was filter-sterilized. Medium containing copper (TAP Cu plus) was prepared by adding CuCl2.2H2O to the TAP Cu minus medium at 20 μM. Test compounds were dissolved in dimethylsulfoxide (DMSO) at 2 mg/mL then dilutions in TAP Cu minus and TAP Cu plus media were prepared in sterilized microcentrifuge tubes at 2 μg/mL. 100 μL aliquots of diluted compound were dispensed into flat-bottomed 96-well microtiter plates. C. reinhardtii was maintained under 12 h of light on TAP agar plates at 18° C. A loopful of cells was added to 50 mL of TAP Cu minus medium and the culture incubated with shaking at 200 rpm at 27° C. for 24 h. The culture (10 to 20 mL aliquot) was centrifuged in a bench centrifuge at 2000 rpm for 2 min. The resulting cell pellet was resuspended in 5 mL sterile milli Q water (which had been treated with Chelex 100 resin using 0.5 g resin per liter of water by stirring at room temperature for 1 h), and recentrifuged. The cells were resuspended in TAP Cu minus medium, and the suspension adjusted to 2×10^5 spores per mL. Microtiter plates containing compounds as described above were inoculated with 100 μL of this cell suspension and the plates incubated at 27° C. for 48 h before assessing algal growth by measuring light scattering in a NepheloStar plate-reader. Growth inhibition was determined by comparing growth in the presence of test compound with growth in control wells lacking test compound. The effect of copper on activity of metal-hydrazone complexes towards C. reinhardtii was evaluated by comparing their activity in TAP Cu minus and TAP Cu plus media as described in Example 10 (compound concentrations were selected which gave low inhibition in TAP Cu minus medium). Growth inhibition was determined by comparing growth in the presence of test compound with growth in control wells lacking test compound. Results for growth inhibition by test compounds in TAP Cu plus medium (% Inhn Plus Copper Observed) were compared with predicted values (% Inhn Plus Copper Predicted) that were calculated using the formula set forth by S. R. Colby in Weeds 1967, 15, 20-22 based on results obtained for the same compounds in TAP Cu minus medium (% Inhn Minus Copper Observed) and the inhibition attributed to copper chloride alone, as determined by comparing growth in TAP Cu minus and TAP Cu plus media without any test compound across experiments.

Where [1] appears, read: C. reinhardtii, test concn. 0.25 μg/mL.
Where [2] appears, read: C. reinhardtii, test concn. 0.5 μg/mL.

`CC(=O)[O-].CC(=O)[O-].O=C(N/N=C/c1cc(Cl)cc(Cl)c1O)c1ccccc1.[Cu+2]` [Compound 72]: under “test concn. 0.25 μg/mL”, the “% Inhn. Minus Copper Observed” value is recorded as 79% and the “% Inhn. Plus Copper Observed” value is 83%. In addition, the “% Inhn. Plus Copper Predicted” value under setting [1] is recorded as 66%.

Regarding `CC(=O)[O-].CC(=O)[O-].O=C(N/N=C/c1cc(Cl)cc(Cl)c1O)c1ccccc1.O=C(N/N=C/c1cc(Cl)cc(Cl)c1O)c1ccccc1.[Cu+2]` [Compound 73], where the note is “test concn. 0.25 μg/mL”, the “% Inhn. Minus Copper Observed” value was determined as 23% and the “% Inhn. Plus Copper Observed” value amounted to 87%. Further, the “% Inhn. Plus Copper Predicted” value under setting [1] is recorded as 10%.

As for `O=C(N/N=C/c1cc(Cl)cc(Cl)c1O)c1ccccc1.O=C(N/N=C/c1cc(Cl)cc(Cl)c1O)c1ccccc1.O=S(=O)([O-])[O-].[Cu+2]` [Compound 74], under “test concn. 0.25 μg/mL”, the “% Inhn. Minus Copper Observed” value was −9% and the “% Inhn. Plus Copper Observed” value amounted to 82%. Moreover, under setting [1], the “% Inhn. Plus Copper Predicted” value is recorded as −22%.

`O=C(N/N=C/c1cc(Cl)cc(Cl)c1O)c1ccccc1.[Cl-].[Cl-].[Cu+2]` [Compound 75]: for the setting “test concn. 0.25 μg/mL”, the “% Inhn. Minus Copper Observed” value is recorded as 18% and the “% Inhn. Plus Copper Observed” value came to 59%. The “% Inhn. Plus Copper Predicted” value under setting [1] was 5%.

As for `O=C(N/N=C/c1cc(Cl)cc(Cl)c1O)c1ccccc1.O=C(N/N=C/c1cc(Cl)cc(Cl)c1O)c1ccccc1.[Cl-].[Cl-].[Cu+2]` [Compound 76], for the setting “test concn. 0.5 μg/mL”, the “% Inhn. Minus Copper Observed” value is 3% and the “% Inhn. Plus Copper Observed” value amounted to 89%. Besides, the “% Inhn. Plus Copper Predicted” value under setting [2] was −10%.

For `O=C(N/N=C/c1cc(Cl)cc(Cl)c1O)c1ccccc1.O=C(N/N=C/c1cc(Cl)cc(Cl)c1O)c1ccccc1.[Cl-].[Cl-].[Mn+2]` [Compound 77], under “test concn. 0.5 μg/mL”, the “% Inhn. Minus Copper Observed” value is on record as −5% and the “% Inhn. Plus Copper Observed” value is on record as 93%. Besides, the “% Inhn. Plus Copper Predicted” value under setting [2] was −18%.

For `O=C(NN=Cc1cc(Cl)cc(Cl)c1O)c1ccccc1.O=C(NN=Cc1cc(Cl)cc(Cl)c1O)c1ccccc1.[Cl-].[Cl-].[Zn+2]` [Compound 78], under “test concn. 0.5 μg/mL”, the “% Inhn. Minus Copper Observed” value is given as −9% and the “% Inhn. Plus Copper Observed” value came to 87%. The “% Inhn. Plus Copper Predicted” value under setting [2] is listed as −22%.

For `[Cl][Cu][Cl]` [CuCl2, Copper chloride, reference compound], the “% Inhn. attributed to copper chloride alone” value (C. reinhardtii, CuCl2 10 μM, growth in TAP Cu plus vs TAP Cu minus medium without test compound, across experiments) is −12.9%.

(Values after patent US8906829B2, “Synergistic algicidal compositions including hydrazone derivatives and copper” (Dow AgroSciences LLC, priority 2010, dated 2014).)
